Laboratory results taken from paper PMC9794428, “Enzyme Inhibitory Activities of Extracts and Carpachromene from the Stem of Ficus benghalensis” (BioMed Research International, 2022).

Columns and labels:
[1] = system: T1, PDE-1; assay: bis(p-nitrophenyl) substrate hydrolysis, […] nm; assay type: biochemical; settings: 0.33 mM bis(p-nitrophenyl) substrate, Mg acetate, Tris-HCl pH 8.8, 37 °C
T1 construct: gene phosphodiesterase I; substrate bis(p-nitrophenyl) phosphate type, pH 8.8 and Mg acetate fit the usual snake venom phosphodiesterase I, not the docking model human PDE1B (5W6E)

[2] = target: T2, mushroom tyrosine [tyrosinase]; assay: L-DOPA oxidation, absorbance […] nm; assay type: biochemical; settings: L-DOPA (printed L-DOP) substrate, phosphate buffer, 37 °C
T2 construct: gene PPO1; docking model 1WX2 is another species (Streptomyces)

Row | Structure (SMILES) | IC50 [1] [µM] | IC50 [2] [µM] | IC50 ([1]; chelator used as standard) [µM]
1 | CC1(C)C=Cc2c(cc3oc(-c4ccc(O)cc4)cc(=O)c3c2O)O1 [compound 1, carpachromene] | 209.4 ± 1.87 | 40.5 ± 2 | –
2 | O=c1cc(CO)occ1O [Kojic acid] | – | 44 ± 1.1 | –
3 | O=C(O)CN(CCN(CC(=O)O)CC(=O)O)CC(=O)O [EDTA] | – | – | 264.1 ± 1.09
